Results on 63 compounds are retold here after ChEMBL document CHEMBL1137741, “QSAR models for 2-amino-6-arylsulfonylbenzonitriles and congeners HIV-1 reverse transcriptase inhibitors based on linear and nonlinear regression methods” (Eur J Med Chem, 2009).

The subject of this experiment is Human immunodeficiency virus 1. Nature of the experiment: Antiviral activity against HIV1. The class given is functional, organism-based. As to conditions: Human immunodeficiency virus 1, read-out: pIC50 (converted).
Take `N#Cc1c(N)cccc1Sc1cccc(Br)c1`: the IC50 was 5.11 µM.

With `N#Cc1c(N)cccc1Sc1cccc(C(F)(F)F)c1`, the IC50 is 12.8 µM.

Consider `N#Cc1c(N)cccc1[S+]([O-])c1cccc(Br)c1` (stereo not drawn), for which the IC50 is 0.08 µM.

Consider `N#Cc1c(N)cccc1S(=O)(=O)c1cccc(F)c1`, for which the IC50 is 3 µM.

For the compound `COc1cc(C)cc(Sc2cccc(N)c2C#N)c1`, the IC50 was 2 µM.

For `Cc1cc(C)cc(Sc2cccc(N)c2C#N)c1`, the IC50 is 0.429 µM.

Turning to `Cc1cc(Br)cc(S(=O)(=O)c2cccc(N)c2C#N)c1`, the IC50 was 0.02 µM.

On to `CCCCOc1cc(C)cc(S(=O)(=O)c2cccc(N)c2C#N)c1`, for which the IC50 was 0.6 µM.

For `N#Cc1c(N)cccc1S(=O)(=O)c1ccccc1Cl`, the IC50 is 4.1 µM.

With `N#Cc1c(N)cccc1S(=O)(=O)c1cccc(C(F)(F)F)c1`, the IC50 is 3.5 µM.

On to `N#Cc1c(N)cccc1[S+]([O-])c1ccccc1Br` (stereo not drawn), for which the IC50 was 39.2 µM.

For the compound `Cc1cc(O)cc(S(=O)(=O)c2cccc(N)c2C#N)c1`, the IC50 is 0.429 µM.

Take `N#Cc1c(N)cccc1Sc1ccccc1Cl`: the IC50 was 4.1 µM.

With `Cc1cc(Cl)cc(S(=O)(=O)c2cccc(N)c2C#N)c1`, the IC50 was 0.03 µM.

In the case of `N#Cc1c(N)cccc1Sc1cccc(Cl)c1`, the IC50 is 7.4 µM.

Take `COc1ccccc1S(=O)(=O)c1cccc(N)c1C#N`: the IC50 is 0.6 µM.

In the case of `N#Cc1ccccc1S(=O)(=O)c1cccc(N)c1C#N`, the IC50 is 5.4 µM.

As to `CCCOc1cc(C)cc(S(=O)(=O)c2cccc(N)c2C#N)c1`, the IC50 was 0.06 µM.

Regarding `N#Cc1c(N)cccc1Sc1cccc(F)c1`, the IC50 is 9.79 µM.

In the case of `Cc1cc(C)cc([S+]([O-])c2cccc(N)c2C#N)c1` (stereo not drawn), the IC50 was 0.34 µM.

Regarding `Cc1cccc(S(=O)(=O)c2cccc(N)c2C#N)c1`, the IC50 was 0.4 µM.

Consider `N#Cc1ccc(Sc2cccc(N)c2C#N)cc1`, for which the IC50 was 43.8 µM.

For `N#Cc1c(N)cccc1S(=O)(=O)c1ccccc1Br`, the IC50 is 5 µM.

In the case of `COc1ccccc1[S+]([O-])c1cccc(N)c1C#N` (stereo not drawn), the IC50 is 4.8 µM.

Consider `COc1cccc([S+]([O-])c2cccc(N)c2C#N)c1` (stereo not drawn), for which the IC50 was 16 µM.

Take `Cc1ccc([S+]([O-])c2cccc(N)c2C#N)cc1` (stereo not drawn): the IC50 is 49 µM.

As for `N#Cc1cccc(Sc2cccc(N)c2C#N)c1`, the IC50 is 1.73 µM.

On to `Cc1cccc(Sc2cccc(N)c2C#N)c1`, for which the IC50 is 6.09 µM.

As for `N#Cc1c(N)cccc1[S+]([O-])c1ccc(Br)cc1` (stereo not drawn), the IC50 was 20.2 µM.

As to `Cc1cc(Cl)cc([S+]([O-])c2cccc(N)c2C#N)c1` (stereo not drawn), the IC50 was 0.32 µM.

Regarding `N#Cc1ccccc1[S+]([O-])c1cccc(N)c1C#N` (stereo not drawn), the IC50 was 3.9 µM.

On to `N#Cc1c(N)cccc1[S+]([O-])c1cc(Cl)ccc1Cl` (stereo not drawn), for which the IC50 is 9.84 µM.

As for `COc1ccccc1Sc1cccc(N)c1C#N`, the IC50 was 4.29 µM.

As to `COc1ccc(S(=O)(=O)c2cccc(N)c2C#N)cc1`, the IC50 was 25 µM.

`Cc1ccccc1S(=O)(=O)c1cccc(N)c1C#N`: the IC50 was 2.3 µM.

Turning to `Cc1cc(Cl)cc(Sc2cccc(N)c2C#N)c1`, the IC50 was 1.76 µM.

On to `Cc1ccc(S(=O)(=O)c2cccc(N)c2C#N)cc1`, for which the IC50 was 9.51 µM.

In the case of `Cc1ccccc1Sc1cccc(N)c1C#N`, the IC50 is 16 µM.

For the compound `Cc1cc(C)cc(S(=O)(=O)c2cccc(N)c2C#N)c1`, the IC50 was 0.01 µM.

With `COc1cc([S+]([O-])c2cccc(N)c2C#N)cc(C(F)(F)F)c1` (stereo not drawn), the IC50 is 2.07 µM.

`N#Cc1c(N)cccc1Sc1cccc(N)c1`: the IC50 is 31.5 µM.

For `N#Cc1c(N)cccc1S(=O)(=O)c1ccc(Cl)cc1`, the IC50 is 3 µM.

As to `N#Cc1c(N)cccc1S(=O)(=O)c1cc(Cl)cc(Cl)c1`, the IC50 was 0.07 µM.

Consider `COc1cccc(Sc2cccc(N)c2C#N)c1`, for which the IC50 is 6 µM.

In the case of `Cc1cccc([S+]([O-])c2cccc(N)c2C#N)c1` (stereo not drawn), the IC50 is 29.2 µM.

Consider `COc1cccc(S(=O)(=O)c2cccc(N)c2C#N)c1`, for which the IC50 was 0.899 µM.

On to `COc1cc(Sc2cccc(N)c2C#N)cc(C(F)(F)F)c1`, for which the IC50 is 5.11 µM.

Consider `COc1cc(C(F)(F)F)cc(S(=O)(=O)c2cccc(N)c2C#N)c1`, for which the IC50 is 0.09 µM.

Take `N#Cc1c(N)cccc1[S+]([O-])c1cccc(C(F)(F)F)c1` (stereo not drawn): the IC50 is 40 µM.

On to `N#Cc1c(N)cccc1S(=O)(=O)c1ccccc1`, for which the IC50 is 2 µM.

For `N#Cc1cccc([S+]([O-])c2cccc(N)c2C#N)c1` (stereo not drawn), the IC50 is 14.2 µM.

`N#Cc1c(N)cccc1S(=O)(=O)c1ccc(Br)cc1`: the IC50 is 20 µM.

Consider `N#Cc1c(N)cccc1Sc1ccccc1Br`, for which the IC50 is 30 µM.

Regarding `COc1cc(C)cc(S(=O)(=O)c2cccc(N)c2C#N)c1`, the IC50 is 0.05 µM.

With `N#Cc1c(N)cccc1S(=O)(=O)c1cccc(Cl)c1`, the IC50 is 0.59 µM.

As to `N#Cc1c(N)cccc1Sc1ccccc1`, the IC50 was 14.6 µM.

In the case of `Cc1ccccc1[S+]([O-])c1cccc(N)c1C#N` (stereo not drawn), the IC50 is 92.9 µM.

As to `N#Cc1c(N)cccc1S(=O)(=O)c1cc(Cl)ccc1Cl`, the IC50 was 0.3 µM.

With `N#Cc1ccc(S(=O)(=O)c2cccc(N)c2C#N)cc1`, the IC50 was 80 µM.

In the case of `N#Cc1c(N)cccc1S(=O)(=O)c1ccccc1F`, the IC50 is 3 µM.

For the compound `N#Cc1cccc(S(=O)(=O)c2cccc(N)c2C#N)c1`, the IC50 is 2.4 µM.

Consider `CCOc1cc(C)cc(S(=O)(=O)c2cccc(N)c2C#N)c1`, for which the IC50 was 0.06 µM.

In the case of `N#Cc1c(N)cccc1S(=O)(=O)c1cccc(Br)c1`, the IC50 is 0.539 µM.
